Numbers after ± are expanded uncertainties.
Test: wn = mass fraction of the nth substance listed
Settings: 100 kPa, Liquid; for mass density: Pycnometric method; for viscosity: Capillary tube (Ostwald / Ubbelohde) method

O=C(O)c1ccccc1 [benzoic acid] + O
Settings	mass density [kg/m3]	thermal conductivity [W/m/K]	viscosity [mPa·s]
373 K, w1 = 0.1	–	0.659 ± 0.023	–
374.6 K, w1 = 0.05	–	0.671 ± 0.023	–
379.1 K, w1 = 0.1	974.1 ± 0.9	–	–
379.6 K, w1 = 0.05	963.7 ± 0.8	–	–
380.6 K, w1 = 0.1	–	–	0.319 ± 0.004
381.1 K, w1 = 0.05	–	–	0.288 ± 0.003
391 K, w1 = 0.2	–	0.649 ± 0.022	–
392.9 K, w1 = 0.1	961 ± 0.9	–	–
393.6 K, w1 = 0.05	–	0.675 ± 0.023	–
393.6 K, w1 = 0.4	–	0.575 ± 0.02	–
393.9 K, w1 = 0.8	–	0.199 ± 0.008	–
394.2 K, w1 = 0.1	–	0.662 ± 0.023	–
394.6 K, w1 = 0.05	951.9 ± 0.8	–	–
395.9 K, w1 = 0.1	–	–	0.272 ± 0.003
397.6 K, w1 = 0.05	–	–	0.256 ± 0.003
400.3 K, w1 = 0.2	963.5 ± 1	–	–
400.3 K, w1 = 1	–	–	1.372 ± 0.037
400.8 K, w1 = 0.4	988.8 ± 1.4	–	–
400.9 K, w1 = 0.8	1050.1 ± 2.4	–	–
401.3 K, w1 = 1	1089.5 ± 3	–	–
401.6 K, w1 = 0.6	1013.8 ± 1.9	–	–
401.8 K, w1 = 0.2	–	–	0.329 ± 0.004
402.3 K, w1 = 0.4	–	–	0.501 ± 0.008
402.4 K, w1 = 0.8	–	–	0.931 ± 0.022
403.1 K, w1 = 0.6	–	–	0.708 ± 0.013
406.8 K, w1 = 1	–	0.139 ± 0.006	–
409.2 K, w1 = 0.2	–	0.65 ± 0.022	–
409.2 K, w1 = 0.4	–	0.571 ± 0.02	–
409.3 K, w1 = 1	–	–	1.238 ± 0.032
410.3 K, w1 = 1	1080.2 ± 3.2	–	–
410.9 K, w1 = 0.1	–	0.67 ± 0.023	–
412.1 K, w1 = 0.1	945.4 ± 0.9	–	–
413.2 K, w1 = 0.8	–	0.197 ± 0.008	–
413.3 K, w1 = 0.05	–	0.676 ± 0.023	–
413.4 K, w1 = 0.05	935.5 ± 0.9	–	–
413.8 K, w1 = 0.2	950.8 ± 1.1	–	–
414.8 K, w1 = 0.4	975.1 ± 1.4	–	–
414.8 K, w1 = 0.8	1035 ± 2.4	–	–
415.1 K, w1 = 0.1	–	–	0.236 ± 0.003
415.9 K, w1 = 0.6	999.2 ± 1.8	–	–
416.4 K, w1 = 0.05	–	–	0.219 ± 0.003
416.8 K, w1 = 0.2	–	–	0.274 ± 0.004
417.8 K, w1 = 0.4	–	–	0.383 ± 0.006
418 K, w1 = 0.2	–	0.651 ± 0.022	–
418.3 K, w1 = 1	–	–	1.117 ± 0.03
418.8 K, w1 = 0.8	–	–	0.69 ± 0.016
418.9 K, w1 = 0.6	–	–	0.547 ± 0.011
419.3 K, w1 = 1	1069.8 ± 3	–	–
420.1 K, w1 = 0.4	–	0.549 ± 0.019	–
424.4 K, w1 = 1	–	0.137 ± 0.006	–
427.2 K, w1 = 1	–	–	1.026 ± 0.028
428.2 K, w1 = 1	1060.2 ± 3	–	–
428.4 K, w1 = 0.1	929.6 ± 1	–	–
430.1 K, w1 = 0.4	–	0.568 ± 0.02	–
431.3 K, w1 = 0.8	1018.8 ± 2.4	–	–
431.4 K, w1 = 0.1	–	–	0.211 ± 0.003
431.9 K, w1 = 0.2	933.7 ± 1.1	–	–
432.1 K, w1 = 1	1055 ± 3	–	0.953 ± 0.026
432.6 K, w1 = 0.4	955 ± 1.5	–	–
433.1 K, w1 = 0.05	915.2 ± 1	–	–
433.1 K, w1 = 0.8	–	0.192 ± 0.008	–
433.9 K, w1 = 0.6	981.1 ± 1.9	–	–
434.3 K, w1 = 0.8	–	–	0.542 ± 0.013
434.9 K, w1 = 0.2	–	–	0.234 ± 0.003
435.6 K, w1 = 0.4	–	–	0.309 ± 0.005
436.1 K, w1 = 0.05	–	–	0.194 ± 0.003
436.9 K, w1 = 0.6	–	–	0.399 ± 0.008
444.9 K, w1 = 0.1	912.6 ± 1.1	–	–
444.9 K, w1 = 1	–	0.134 ± 0.006	–
447.1 K, w1 = 1	1036 ± 3	–	0.802 ± 0.022
447.9 K, w1 = 0.1	–	–	0.194 ± 0.003
449.4 K, w1 = 0.8	1000.5 ± 2.3	–	–
450.8 K, w1 = 0.05	896.3 ± 1.1	–	–
451 K, w1 = 0.8	–	0.188 ± 0.008	–
452.1 K, w1 = 0.4	932 ± 1.4	–	–
452.4 K, w1 = 0.2	912 ± 1.2	–	–
452.4 K, w1 = 0.8	–	–	0.438 ± 0.01
453.4 K, w1 = 0.6	959.5 ± 1.9	–	–
453.8 K, w1 = 0.05	–	–	0.177 ± 0.002
455.1 K, w1 = 0.4	–	–	0.263 ± 0.004
455.4 K, w1 = 0.2	–	–	0.206 ± 0.003
456.4 K, w1 = 0.6	–	–	0.334 ± 0.006
465.1 K, w1 = 1	–	0.132 ± 0.006	–
